Laboratory results as given in patent US20130190217A1, “ESTER OILS” (PANOLIN Holding AG, priority 2010, published 2013).

Legend:
[1] = Flashpoint; type: physicochemical
[2] = NOACK vaporization (physical vaporization according to Noack, 250° C. for 1 h); type: physicochemical
From the text: Trimethylolpropane esters (TMP-C8/C10) are commercially available from various suppliers and have been used for comparative purposes.

[3] = Viscosity index (VI); type: physicochemical
[4] = Pour point; type: physicochemical
From the text: In addition, the inventive ester oils have a high flashpoint, such that use at relatively high oil sump and component temperatures is possible without risk. In addition, the pour point of the ester oils is relatively low, as a result of which the esters are also usable at low temperatures. For a liquid product, the pour point denotes the temperature at which it is still just free-flowing in the course of cooling. Thus, the inventive ester oils can be used within a broad temperature range.

[5] = Kinematic viscosity; type: physicochemical
[6] = Density; type: physicochemical; conditions: Table 3
[7] = Cold Crank Simulator according to ASTM D5293; type: physicochemical
Description: (§1) For the C12D13 esters and the C10D13 esters, three independently prepared samples were included in each case. For the C9D13 ester and for the D5C18 ester, one sample was analyzed in each case. The “CCS−25° C. [mPas]” and “CCS−20° C. [mPas]” columns each contain figures for the “Cold Crank Simulator” according to the standard ASTM D5293 at −25° C. and −20° C. The HTHS150° C. [mPas] column indicates what is called the “High-Temperature High-Shear Viscosity” (HTHS) at elevated temperature.

[8] = High-Temperature High-Shear Viscosity (HTHS); type: physicochemical; conditions: 150° C.
Description: as §1

[9] = taken from safety data sheets; cited from earlier work
[10] = taken from safety data sheets; cited from earlier work; remark: listed apart in the source
[11] = UBA number 4203; cited from earlier work
[12] = Table 3, listed as C12D13 (1st sample)
[13] = Table 3, listed as C12D13 (2nd sample)
[14] = Table 3, listed as C12D13 (3rd sample)

## CC(C)CCCCCCCCCCOC(=O)CCCCCCCCCCC(=O)OCCCCCCCCCCC(C)C [C12D13, di(isotridecyl)dodecanedioate]
[1]; Table 2, base oil
  Flashpoint: 277 °C
[1]; [12]
  Flashpoint: 276 °C
[1]; [13]
  Flashpoint: 277 °C
[1]; [14]
  Flashpoint: 261 °C
[2]; Table 2, base oil
  NOACK: 5.7%
[2]; Table 3, 250° C. for 1 h, listed as C12D13 (1st sample)
  NOACK: 2.4%
[2]; Table 3, 250° C. for 1 h, listed as C12D13 (2nd sample)
  NOACK: 4.3%
[2]; Table 3, 250° C. for 1 h, listed as C12D13 (3rd sample)
  NOACK: 2.9%
[3]; Table 2, base oil
  VI: 158
[3]; [12]
  VI: 158
[3]; [13]
  VI: 147
[3]; [14]
  VI: 156
[4]; Table 2, base oil
  Pour point: −57 °C
[4]; [12]
  Pour point: −48 °C
[4]; [13]
  Pour point: −57 °C
[4]; [14]
  Pour point: −51 °C
[5]; Table 2, 40° C.
  η40° C.: 42.0 mm^2/s
[5]; Table 2, 100° C.
  η100° C.: 7.5 mm^2/s
[5]; Table 3, 40° C., listed as C12D13 (1st sample)
  η40° C.: 40.47 mm^2/s
[5]; Table 3, 40° C., listed as C12D13 (2nd sample)
  η40° C.: 42.0 mm^2/s
[5]; Table 3, 40° C., listed as C12D13 (3rd sample)
  η40° C.: 41.2 mm^2/s
[5]; Table 3, 100° C., listed as C12D13 (1st sample)
  η100° C.: 7.573 mm^2/s
[5]; Table 3, 100° C., listed as C12D13 (2nd sample)
  η100° C.: 7.5 mm^2/s
[5]; Table 3, 100° C., listed as C12D13 (3rd sample)
  η100° C.: 7.6 mm^2/s
[5]; Table 3, 150° C.
  η150° C.: 3.45 mm²/s
[6]; listed as C12D13 (1st sample)
  Density: 0.9051 g/mL
[6]; listed as C12D13 (2nd sample)
  Density: 0.9020 g/mL
[6]; listed as C12D13 (3rd sample)
  Density: 0.904 g/mL
[7]; listed as C12D13 (1st sample)
  CCS−20° C.: 1910 mPas
  CCS−25° C.: 3210 mPas
[7]; listed as C12D13 (2nd sample)
  CCS−20° C.: 1700 mPas
[7]; listed as C12D13 (3rd sample)
  CCS−25° C.: 3230 mPas
[8]
  HTHS150° C.: 2.7 mPa·s
[9]
  Aquatic toxicity OECD 202: 880 mg/L
[10]
  Aquatic toxicity OECD 203: >1000 mg/L
[11]
  water endangerment class (WGK): WGK 1
